How the values were obtained:
human DGAT1 = biological target: T1, human DGAT1 (Homo sapiens, UniProt O75907); experiment: DGAT Scintillation Proximity Assay (SPA) with membranes of insect cells expressing human flagtag DGAT1; type: biochemical; settings: read-out: hDGAT1 IC50
T1 construct: made in house; host or cells: insect cells (sf9, sf21 or High Five) infected with baculovirus; total cell membranes
T1 sequence (O75907 1-488): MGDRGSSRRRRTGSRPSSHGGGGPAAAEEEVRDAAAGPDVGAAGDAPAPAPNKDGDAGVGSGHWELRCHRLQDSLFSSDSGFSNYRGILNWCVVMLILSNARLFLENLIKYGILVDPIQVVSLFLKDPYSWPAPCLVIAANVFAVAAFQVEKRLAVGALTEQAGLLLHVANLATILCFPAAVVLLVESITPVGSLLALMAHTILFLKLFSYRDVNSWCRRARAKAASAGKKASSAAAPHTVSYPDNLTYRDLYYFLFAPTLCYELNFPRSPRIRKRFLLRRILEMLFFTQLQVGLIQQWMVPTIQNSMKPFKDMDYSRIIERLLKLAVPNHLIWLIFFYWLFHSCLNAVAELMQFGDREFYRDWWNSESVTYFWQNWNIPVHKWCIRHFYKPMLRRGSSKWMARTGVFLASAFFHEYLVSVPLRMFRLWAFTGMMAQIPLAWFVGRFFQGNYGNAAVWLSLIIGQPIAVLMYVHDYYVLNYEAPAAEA
Method in brief: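 Membranes (0.2 μg/well) from insect cells expressing human flag-tagged DGAT1 incubated with 10 μM compound and 200 μM dioleoyl glycerol substrate; mercuric chloride as inhibition control. Reaction stopped with WGA SPA beads in mercuric chloride, overnight bead coupling, then scintillation proximity signal read.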

Row | SMILES | melting point | IC50 (human DGAT1) [nM]
1 | CC1(C)Oc2nccc(N)c2N=C1c1ccc([C@H]2CC[C@H](CC(=O)O)CC2)cc1 [Example 2-117] | > 250 °C | 10 to 100
2 | CC1(C)Oc2ncnc(N)c2N=C1c1ccc([C@H]2CC[C@H](Cc3cnc(C(C)(C)C)[nH]3)CC2)cc1 [Example 2-119] | > 250 °C | 10 to 100
3 | CC1(C)Oc2ncnc(N)c2N=C1c1ccc([C@H]2CC[C@H](Cc3cnc(C4CC4)[nH]3)CC2)cc1 [Example 2-120] | 226 to 227 °C | 10 to 100
4 | CC1(C)Oc2ncnc(N)c2N=C1c1ccc([C@H]2CC[C@H](Cc3nc4cc(Cl)ccc4[nH]3)CC2)cc1 [Example 2-122] | > 230 °C | 10 to 100
5 | CC1(C)Oc2ncnc(N)c2N=C1c1ccc([C@H]2CC[C@H](Cc3cnc(-c4ccccc4)[nH]3)CC2)cc1 [Example 2-123] | 230 to 231 °C | 10 to 100
6 | CC1(C)Oc2ncnc(N)c2N=C1c1ccc([C@H]2CC[C@H](Cc3nc4cc(F)ccc4[nH]3)CC2)cc1 [Example 2-124] | > 230 °C | 10 to 100
7 | CC1(C)Oc2ncnc(N)c2N=C1c1ccc([C@@H]2CCC[C@H](CC(=O)O)C2)cc1 [Example 2-126] | 234 to 235 °C | 10 to 100
8 | Cc1csc(NC[C@H]2CC[C@H](c3ccc(C4=Nc5c(N)ncnc5OC4(C)C)cc3)CC2)n1 [Example 2-127] | 228 to 230 °C | 10 to 100
9 | CC(=O)NC[C@H]1CC[C@H](c2ccc(C3=Nc4c(N)ncnc4OC3(C)C)cc2)CC1 [Example 2-128] | 253 to 254 °C | 10 to 100
10 | Cc1ccc(S(=O)(=O)NC[C@H]2CC[C@H](c3ccc(C4=Nc5c(N)ncnc5OC4(C)C)cc3)CC2)cc1 [Example 2-129] | 206 to 207 °C | 10 to 100
11 | CC1(C)Oc2ncnc(N)c2N=C1c1ccc([C@H]2CC[C@H](CNS(N)(=O)=O)CC2)cc1 [Example 2-130] | 226 to 227 °C | 10 to 100
12 | CC1(C)Oc2ncnc(N)c2N=C1c1ccc([C@H]2CC[C@H](CNC(=O)[C@@H]3CCCN3)CC2)cc1 [Example 2-131] | 230 to 231 °C | 10 to 100
13 | CC1(C)Oc2ncnc(N)c2N=C1c1ccc([C@H]2CC[C@H](CNC(=O)[C@@H]3C[C@@H](O)CN3)CC2)cc1 [Example 2-132] | 217 to 218 °C | 10 to 100
14 | Cc1nc(N)c2c(n1)OC(C)(C)C(c1ccc(C3CC(CC(=O)O)C3(C)C)cc1)=N2 (stereo not drawn) [Example 2-145] | > 250 °C | 10 to 100
15 | Cc1nc(N)c2c(n1)OC(C)(C)C(c1ccc(C3CC(CC(=O)O)C3)cc1)=N2 (stereo not drawn) [Example 2-146] | > 250 °C | 10 to 100
16 | Cc1nc(N)c2c(n1)OC(C)(C)C(c1ccc(C3CC(CCC(=O)O)C3)cc1)=N2 (stereo not drawn) [Example 2-149] | 237 to 238 °C | 10 to 100
17 | CC1(C)Oc2nc(C(F)(F)F)nc(N)c2N=C1c1ccc([C@H]2CC[C@H](CNC(=O)CO)CC2)cc1 [Example 2-154] | 229 to 233 °C | 10 to 100
18 | CC1(C)Oc2ncnc(N)c2N=C1c1ccc([C@H]2CC[C@H](CCNS(C)(=O)=O)CC2)cc1 [Example 2-173] | 218 to 219 °C | 10 to 100
19 | CC(=O)NCC[C@H]1CC[C@H](c2ccc(C3=Nc4c(N)ncnc4OC3(C)C)cc2)CC1 [Example 2-174] | 238 to 239 °C | 10 to 100

Results, then the compound that gave them:

Row | melting point | IC50 (human DGAT1) [nM] | SMILES
20 | 215 to 216 °C | 10 to 100 | Cc1ncc(C[C@H]2CC[C@H](c3ccc(C4=Nc5c(N)ncnc5OC4(C)C)cc3)CC2)s1 [Example 2-118]
21 | 225 to 226 °C | < 10 | Cc1nc(N)c2c(n1)OC(C)(C)C(c1ccc([C@H]3CC[C@H](CC(=O)NS(C)(=O)=O)CC3)cc1)=N2 [Example 2-134]
22 | 229 to 230 °C | 10 to 100 | Cc1nc(N)c2c(n1)OC(C)(C)C(c1ccc([C@H]3CC[C@H](CC(=O)NC(C)(C)CO)CC3)cc1)=N2 [Example 2-135]
23 | 210 to 211 °C | 10 to 100 | Cc1nc(N)c2c(n1)OC(C)(C)C(c1ccc([C@H]3CC[C@H](CC(=O)N4CC(O)C(O)C4)CC3)cc1)=N2 (stereo partly drawn) [Example 2-136]
24 | > 250 °C | < 10 | Cc1nc(N)c2c(n1)OC(C)(C)C(c1ccc([C@H]3CC[C@H](Cc4nn[nH]n4)CC3)cc1)=N2 [Example 2-137]
25 | 235 to 238 °C | 10 to 100 | Cc1nc(N)c2c(n1)OC(C)(C)C(c1ccc([C@H]3CC[C@H](CNC(=O)CO)CC3)cc1)=N2 [Example 2-138]
26 | 249 to 250 °C | 10 to 100 | Cc1nc(N)c2c(n1)OC(C)(C)C(c1ccc([C@H]3CC[C@H](CNC(=O)C(C)(C)CO)CC3)cc1)=N2 [Example 2-139]
27 | 223 to 224 °C | 10 to 100 | Cc1nc(N)c2c(n1)OC(C)(C)C(c1ccc([C@H]3CC[C@H](CNC(=O)CCO)CC3)cc1)=N2 [Example 2-140]
28 | 221 to 223 °C | 10 to 100 | Cc1nc(N)c2c(n1)OC(C)(C)C(c1ccc([C@H]3CC[C@H](CCNC(=O)C(C)(C)O)CC3)cc1)=N2 [Example 2-141]
29 | 142 to 144 °C | 10 to 100 | Cc1nc(N)c2c(n1)OC(C)(C)C(c1ccc([C@H]3CC[C@H](CC(=O)NCC(N)=O)CC3)cc1)=N2 [Example 2-142]
30 | 196 to 198 °C | < 10 | Cc1nc(N)c2c(n1)OC(C)(C)C(c1ccc([C@H]3CC[C@H](CC(=O)N(C)CC(=O)O)CC3)cc1)=N2 [Example 2-143]
31 | > 230 °C | 10 to 100 | Cc1nc(N)c2c(n1)OC(C)(C)C(c1ccc([C@H]3CC[C@H](CC(=O)N(C)CC(N)=O)CC3)cc1)=N2 [Example 2-144]
32 | > 230 °C | 10 to 100 | Cc1nc(N)c2c(n1)OC(C)(C)C(c1ccc([C@H]3CC[C@H](Cc4n[nH]c(=O)[nH]4)CC3)cc1)=N2 [Example 2-147]
33 | > 250 °C | < 10 | Cc1nc(N)c2c(n1)OC(C)(C)C(c1ccc([C@H]3CC[C@H](CC(=O)Cc4nn[nH]n4)CC3)cc1)=N2 [Example 2-148]
34 | 228 to 229 °C | 10 to 100 | Cc1nc(N)c2c(n1)OC(C)(C)C(c1ccc([C@H]3CC[C@H](CNC(=O)C(C)(C)O)CC3)cc1)=N2 [Example 2-150]
35 | > 250 °C | < 10 | Cc1nc(N)c2c(n1)OC(C)(C)C(c1ccc([C@H]3CC[C@H](Cc4nc(=O)o[nH]4)CC3)cc1)=N2 [Example 2-151]
36 | 225 to 226 °C | 10 to 100 | Cc1nc(N)c2c(n1)OC(C)(C)C(c1ccc([C@H]3CC[C@H](Cc4nc(=O)s[nH]4)CC3)cc1)=N2 [Example 2-152]
37 | > 250 °C | 10 to 100 | CCn1c(C[C@H]2CC[C@H](c3ccc(C4=Nc5c(N)nc(C)nc5OC4(C)C)cc3)CC2)n[nH]c1=O [Example 2-156]
38 | 240 to 241 °C | 10 to 100 | Cc1nc(N)c2c(n1)OC(C)(C)C(c1ccc([C@H]3CC[C@H](CN4CCOC4=O)CC3)cc1)=N2 [Example 2-158]
39 | 148 °C (dec.) | 10 to 100 | Cc1nc(N)c2c(n1)OC(C)(C)C(c1ccc([C@H]3CC[C@H](CN4CC(=O)NC4=O)CC3)cc1)=N2 [Example 2-159]
40 | 185 to 186 °C | 10 to 100 | Cc1nc(N)c2c(n1)OC(C)(C)C(c1ccc([C@H]3CC[C@H](CCNC(=O)CO)CC3)cc1)=N2 [Example 2-160]
41 | 219 to 221 °C | 10 to 100 | Cc1nc(N)c2c(n1)OC(C)(C)C(c1ccc([C@H]3CC[C@H](CNC(N)=O)CC3)cc1)=N2 [Example 2-161]
42 | 216 to 250 °C | 10 to 100 | Cc1nc(N)c2c(n1)OC(C)(C)C(c1ccc([C@H]3CC[C@H](CNC4=NCCO4)CC3)cc1)=N2 [Example 2-162]
43 | 219 to 221 °C | 10 to 100 | Cc1nc(N)c2c(n1)OC(C)(C)C(c1ccc([C@H]3CC[C@H](CNC(=O)C(O)C(C)(C)CO)CC3)cc1)=N2 (stereo partly drawn) [Example 2-163]
44 | 222 to 225 °C | 10 to 100 | Cc1nc(N)c2c(n1)OC(C)(C)C(c1ccc([C@H]3CC[C@H](CNC(=O)C(O)CCO)CC3)cc1)=N2 (stereo partly drawn) [Example 2-164]
45 | > 250 °C | 10 to 100 | Cc1nc(N)c2c(n1)OC(C)(C)C(c1ccc([C@H]3CC[C@H](Cc4cc(O)n(C)n4)CC3)cc1)=N2 [Example 2-165]
46 | 225 to 233 °C | 10 to 100 | Cc1nc(N)c2c(n1)OC(C)(C)C(c1ccc([C@H]3CC[C@H](CN4CCC(O)C4=O)CC3)cc1)=N2 (stereo partly drawn) [Example 2-166]
47 | > 230 °C | 10 to 100 | Cc1nc(N)c2c(n1)OC(C)(C)C(c1ccc([C@H]3CC[C@H](Cc4nc(=O)[nH]n4C)CC3)cc1)=N2 [Example 2-169]
48 | > 250 °C | 10 to 100 | CC1(C)Oc2ncnc(N)c2N=C1c1ccc([C@H]2CC[C@H](CCc3cc(O)[nH]n3)CC2)cc1 [Example 2-172]
